The numbers were not newly measured in US6045829A, “Nanocrystalline formulations of human immunodeficiency virus (HIV) protease inhibitors using cellulosic surface stabilizers” (Elan Pharma International Limited, priority 1997, dated 2000), which cites them from elsewhere.

The structures appear in SMILES notation.

In one data set the test system is HIV reverse transcriptase (RT). The following applies: in vivo.
`O=c1[nH]cnc2c1ncn2[C@H]1CC[C@@H](CO)O1` [ddI, didanosine]: the “effectiveness in treating HIV infection” value was “only modestly effective”.

For the compound `O[C@H](CS)[C@H](O)CS` (racemic) [ddT, dithiothreitol], the “effectiveness in treating HIV infection” value is given as “only modestly effective”.

The same data set, now with this note: interfere with cellular enzymes similar to the HIV viral enzyme.
Turning to `Cc1cn([C@H]2C[C@H](N=[N+]=[N-])[C@@H](CO)O2)c(=O)[nH]c1=O` [AZT, azidothymidine], the side effects result is on record as “severe side effects”.

On to `O=c1[nH]cnc2c1ncn2[C@H]1CC[C@@H](CO)O1` [ddI, didanosine], for which the side effects entry is “severe side effects”.

As for `O[C@H](CS)[C@H](O)CS` (racemic) [ddT, dithiothreitol], the side effects result is given as “severe side effects”.

System in a further data set: not given
Conditions: in vivo, po.
Consider `Nc1cccc(CN2C(=O)N(Cc3cccc(N)c3)[C@H](Cc3ccccc3)[C@H](O)[C@@H](O)[C@H]2Cc2ccccc2)c1` [DMP-450], for which the oral bioavailability result is recorded as “low oral bioavailability”.

Turning to `CC(C)(C)NC(=O)[C@@H]1C[C@@H]2CCCC[C@@H]2CN1C[C@@H](O)[C@H](Cc1ccccc1)NC(=O)[C@H](CC(N)=O)NC(=O)c1ccc2ccccc2n1` [saquinavir], the oral bioavailability result is reported as “low oral bioavailability”.

`CC(C)c1nc(CN(C)C(=O)N[C@H](C(=O)N[C@@H](Cc2ccccc2)C[C@H](O)[C@H](Cc2ccccc2)NC(=O)OCc2cncs2)C(C)C)cs1` [ABT-538]: the oral bioavailability result is listed as “low oral bioavailability”.

On to `CC(C)CN(C[C@@H](O)[C@H](Cc1ccccc1)NC(=O)O[C@H]1CCOC1)S(=O)(=O)c1ccc(N)cc1` [VX-478], for which the oral bioavailability result is “low oral bioavailability”.

Regarding `CC(C)(C)NC(=O)[C@@H]1CN(Cc2cccnc2)CCN1C[C@@H](O)C[C@@H](Cc1ccccc1)C(=O)N[C@H]1c2ccccc2C[C@H]1O` [MK-639, N-(2-(R)-hydroxy-1(S)-indanyl)-2(R)-phenylmethyl-4-(S)-hydroxy-5-(1-(4-(3-pyridylmethyl)-2(S)-N'-(t-butylcarboxamido)-piperazinyl))-pentaneamide], the oral bioavailability result was “low oral bioavailability”.

Regarding `Cc1c(O)cccc1C(=O)N[C@@H](CSc1ccccc1)[C@H](O)CN1C[C@H]2CCCC[C@H]2C[C@H]1C(=O)NC(C)(C)C` [AG1343], the oral bioavailability result is given as “low oral bioavailability”.

Still in this data set, the particulars now being: oral.
Take `N#Cc1ccc(S(=O)(=O)Nc2cccc(C(c3c(O)c4c(oc3=O)CCCCCC4)C3CC3)c2)cc1` (stereo not shown) [U-103,017]: the oral bioavailability result is “low oral bioavailability”.

For the compound `CSC[C@H](NC(=O)COc1cccc2cnccc12)C(=O)N[C@@H](Cc1ccccc1)[C@H](O)C(=O)N1CSC[C@H]1C(=O)NC(C)(C)C` [KNI-272], the oral bioavailability result was “low oral bioavailability”.
